Assay [1] has as its system PC12 cells. Briefly: t-BHP-induced ROS and RNS in PC12 cells (DCF-DA, HFP, DAF-FM, DHR123 probes). It counts as cell-based. Particulars: pre-incubated 2 h, t-BHP 100 μM 6 h; total ROS, hydroxyl radicals, nitric oxide radicals, peroxynitrite; FIG. 14A-14D. The method, then: PC12 cells were seeded on 6-well plate and inoculated in a 5% CO2 incubator at 37° C. for 24 hours, and then T-006 and TMP (100 M) in different concentration gradients were added to be pre-incubated for 2 hours. Then the medium was aspirated, and 100 μl t-BHP (100 μM) was added to each well except the wells of the control group, and the cells were cultured in an incubator for 6 hours. Consequently, DCF-DA probes, HFP probes, DAF-FM probes and DHR123 probes were added respectively to determine the total ROS, hydroxyl radicals, nitric oxide radicals and peroxynitrite. (A) DCF-DA probe for determining intracellular total ROS. (B) HFP probe for determining intracellular hydroxyl radicals. (C) DAF-FM probe for determining nitric oxide free radicals. (D) DHR123 probe for determining intracellular peroxynitrite. Compared with the control group, ### p<0.001; compared with t-BHP, *p<0.05, **p<0.01 and ***p<0.001.

The subject of assay [2] is Primary cerebellar granule cells. Briefly: Protective effect on MPP+-induced cerebellar granule injury (MTT). It counts as cell-based, SD fetal rat. Particulars: pre-incubated 2 h, MPP+ 35 μM 24 h, concentration-dependent, **P<0.01 vs MPP+ group, FIG. 8. The method, then:
(§1) Primary cerebellar granule cells, extracted from 7-8 days, 15-20 g SD fetal rat, were seeded on a 96-well plate and inoculated in a 5% CO2 incubator at 37° C. for 8 days. On day 8, 90 μL of the compound (T-006) was added with different concentration gradients, then the cells were set to an incubator to cultivate for 2 hours. Then 10 μL of MPP^+ (final concentration of 35 μM) was added to each well except those of the control group. The cells were set to incubator to cultivate for 24 hours, and then MTT was added to each well. Four hours later, the absorbance value was measured at 570 nm using a microplate reader. […] Compared with the MPP^+ group, **P<0.01.

For assay [3], the system named is Cortical neurons. Briefly: Protective effect on IAA-induced cortical neuronal injury (MTT). It counts as cell-based, SD fetal rat. The note with it: FIG. 5. The method, then:
Cortical neurons of E16-18 day SD fetal rat were seeded on a 96-well plate and inoculated in a 5% CO2 incubator at 37° C. for 8 days. On day 8, each of the compounds (T-006, TMP, Edaravone) was added with different concentration gradients, and 50 μl IAA (40 μM) was added to each well except those of the control group. Then the neurons were set to incubator to cultivate for 24 hours, and then MTT was added to each well. Four hours later, the absorbance was measured at 570 nm using a microplate reader. […] Compared with the IAA group, ****P<0.0001.

For assay [4], the system named is PC12 cells. Kind of assay: Differentiation of PC12 cells into neurons with synapse growth. It counts as cell-based. The note with it: 72 h, **P<0.01 vs control group, FIG. 11. As for the experimental part: PC12 cells were seeded on 6-well plate and inoculated in a 5% CO2 incubator at 37° C. for 24 hours. Control group was unchanged; NGF control group: serum-free F-12K+50 ng/mL NGF; drug treatment group: serum-free F-12K with different concentrations of T-006. After 72 hours of incubation, picture was taken under an inverted microscope with 5 shoots at random for each hole. If the cell synapse length is more than 2 times the cell, it can be regarded as cell differentiation and synapse formation. […] Compared with the control group, **P<0.01.

The test system of assay [5] is Primary cerebellar granule cells. Kind of assay: Protective effect on glutamate-induced cerebellar granule injury (MTT). It counts as cell-based, SD fetal rat. Particulars: pre-incubated 2 h, glutamate 75 μM 24 h, concentration-dependent, **P<0.01 vs glutamate group, FIG. 7. As for the experimental part: as §1, with “day,” for “days,”, “glutamate” for “MPP^+”, “75” for “35”

Assay [6] relates to Scopolamine-induced memory impairment in mice. Kind of assay: Scopolamine-induced memory impairment in mice, water maze test. It counts as in vivo, Kunming mice. The note with it: for Improvement of scopolamine-induced memory impairment: water maze, **p<0.01 vs scopolamine model group, FIG. 10A, 10B. As for the experimental part:
In this example, Kunming mice were selected and divided into normal control group (Ctrl), Scopolamine group (Sco), Donepezil treatment group (Sco+3 mg/kg donepezil), 1 and 10 mg T-006 treatment group (Sco+1 mg/kg T-006 and Sco+10 mg/kg T-006). Intragastric administration was performed for two weeks, and after the final administration water maze test was conducted for 4 days. Thirty minutes before the test, abdominal injection of scopolamine (1 mg/kg) and model were performed. On day 5, space search test was conducted, and data were expressed as Mean±SD (n=9 per group).

Assay [7] concerns PC12 cells. Briefly: t-BHP-induced apoptosis in PC12 cells (Hoechst staining). It counts as cell-based. Particulars: pre-incubated 2 h, t-BHP 100 μM 24 h, FIG. 13A, 13B. As for the experimental part:
(§2) PC12 cells were seeded on a 96-well plate and inoculated in a 5% CO2 incubator at 37° C. for 24 hours, and then T-006 and TMP (100 M) in different concentration gradients were added to be pre-incubated for 2 hours. Then the medium was aspirated, and 100 μl t-BHP (100 μM) was added to each well except the wells of the control group, and the cells were cultured in an incubator for 24 hours. Hoechst working fluid was added and the number of PC12 cells was observed and counted under fluorescence microscope. […] (B) PC12 cell apoptosis statistics. […] PC12 cells were seeded on a 96-well plate and inoculated in a 5% CO2 incubator at 37° C. for 24 hours, and then T-006 and TMP (100 M) in different concentration gradients were added to be pre-incubated for 2 hours. 2 hours later, 100 μl t-BHP (100 μM) was added to each well except the control group for induction. After completion of the induction, JC-1 working solution was added to each well and mitochondrial membrane potential was monitored and analyzed using flow cytometry. Compared with the control group, ### p<0.001; compared with t-BHP, *p<0.05, **p<0.01 and ***p<0.001.

Assay [8] has as its system MEF2 transcription activity in PC12 cells. Kind of assay: MEF2 luciferase reporter assay in stably transfected PC12 cells. It counts as cell-based. The note with it: 24 h incubation, **P<0.01, FIG. 9. The method, then:
The PC12 was transfected by cloning the MEF2 reporter gene pGreenFire1TM-MEF2-EF1 lentivector. Stable transfected PC12 cells, as cultured in a conventional manner, were seeded on a 96-well plate with T-006 added in different concentrations, were incubated for 24 h. The activity was measured by the Luciferase reporter assay kit (Promega, USA). […] Compared with the IAA group, **P<0.01.
On the technique in general: In a reporter assay the amount or activity of a reporter protein is the signal.

The subject of assay [9] is PC12 cells. Kind of assay: Protective effect on IAA-induced PC12 cell injury (MTT). It counts as cell-based. Particulars: FIG. 3. The method, then: PC12 cells were seeded on a 96-well plate and inoculated in a 5% CO2 incubator at 37° C. for 24 hours. Then 100 μl of IAA (50 μM) was added for induction for 2 hours. Two hours later, the medium was aspirated, and each of the compounds (T-006, TMP, Edaravone) was added and the cells were cultured for 24 hours. After 24 hours of incubation, MTT was added to each well. Four hours later, the absorbance was measured at 570 nm using a microplate reader. […] Compared with the IAA group, ****P<0.0001.

Assay [10] concerns PC12 cells. Kind of assay: Protective effect on t-BHP-induced PC12 cell injury (MTT). It counts as cell-based. The note with it: FIG. 4. The method, then: PC12 cells were seeded on a 96-well plate and inoculated in a 5% CO2 incubator at 37° C., for 24 hours. Then each compound (T-006, TMP, Edaravone) was added in different concentration gradients to pre-incubated for 2 hours. Two hours later, the medium was aspirated, and 100 μl t-BHP (100 μM) was added to each well except those of the control group, then the cells were cultured in an incubator for 24 hours. Four hours later, MTT was added into each of the wells, and the absorbance was measured at 570 nm using a microplate reader. […] Compared with t-BHP group, ****P<0.0001.

Assay [11] concerns PC12 cells. Kind of assay: t-BHP-induced mitochondrial membrane potential disorder in PC12 cells (JC-1, flow cytometry). It counts as cell-based. Particulars: pre-incubated 2 h, t-BHP 100 μM, FIG. 13C. As for the experimental part:
as §2
Background: A flow cytometer gives signals particle by particle.

Assay [12] relates to Cortical neurons. Briefly: Protective effect on t-BHP-induced cortical neuronal injury (MTT). It counts as cell-based, SD fetal rat. Particulars: FIG. 6. As for the experimental part: Cortical neurons of E16-18 days SD fetal rat were seeded on a 96-well plate and inoculated in a 5% CO2 incubator at 37° C. for 8 days. […] The neurons were set to incubator to cultivate for 24 hours, and then MTT was added to each well. Four hours later, the absorbance value was measured at 570 nm using a microplate reader. […] Compared with the t-BHP group, ****P<0.0001.

Setting [13] is: comparison with TMP and Edaravone.

As to `Cc1ccc(N(/N=C/c2nc(C)c(C)nc2C)C(=O)C(F)(F)F)c(C)c1` [T-006], the “Elevation of ROS and RNS in t-BHP-induced PC12 cells” value with PC12 cells [1] was “Reduced the Elevation of ROS and RNS”. Further, the “Protective effect on MPP+-induced primary cerebellar granule injury” value in assay [2] is on record as “significant protective effect”. In addition, the “Protective effect on IAA-induced cortical neuronal injury” value in the assay with Cortical neurons [3] (IAA 40 μM, 24 h, MTT, ****P<0.0001 vs IAA group) is listed as “significant protective effect”. For the same molecule, the “Protective effect on IAA-induced cortical neuronal injury compared with TMP and Edaravone” value in the assay on Cortical neurons [3] (setting [13]) is “much stronger than that of the parent compound TMP and Edaravone”. The “Differentiation of PC12 cells into neurons, synapse formation and growth” value in the assay with PC12 cells [4] (serum-free F-12K, different concentrations, concentration-dependent) is “significantly promote differentiation of PC12 cells into neurons, synapse formation and growth”. In addition, the “Protective effect on glutamate-induced primary cerebellar granule injury” value in [5] is “significant protective effect”. For the same molecule, the “Improvement of scopolamine-induced memory impairment” value in [6] (1 mg/kg intragastric for two weeks) and in [6] (10 mg/kg intragastric for two weeks) was “significantly improved the memory impairment induced by scopolamine” in each case. Moreover, the “Improvement of scopolamine-induced memory impairment compared with 3 mg/kg donepezil group” value in [6] (10 mg/kg T-006 vs 3 mg/kg donepezil, $p<0.05) was “significantly better than 3 mg/kg donepezil group”. The “t-BHP-induced PC12 cell apoptosis” value in the assay with PC12 cells [7] is reported as “reduced t-BHP-induced PC12 cell apoptosis”. Further, the “MEF2 transcriptional activity in PC12 cells” value in [8] is “significantly activates ME12 transcriptional activity”. Also, in the assay with PC12 cells [9] (IAA 50 μM 2 h, then compound 24 h, MTT, ****P<0.0001 vs IAA group), the “Protective effect on IAA-induced PC12 cell injury” value was “significant protective effect”. Moreover, in the assay with PC12 cells [9] (setting [13]), the “Protective effect on IAA-induced PC12 cell injury compared with TMP and Edaravone” value was “much stronger than that of the parent compound TMP and Edaravone”. In addition, the “Protective effect on t-BHP-induced PC12 cell injury compared with TMP or Edaravone” value with PC12 cells [10] (comparison with TMP or Edaravone) is “much stronger than that of the parent compound TMP or Edaravone”. The “Protective effect on t-BHP-induced PC12 cell injury” value in the assay on PC12 cells [10] (pre-incubated 2 h, t-BHP 100 μM 24 h, MTT, ****P<0.0001 vs t-BHP group) is on record as “significant protective effect”. In the assay on PC12 cells [11], the “t-BHP-induced mitochondrial membrane potential disorder in PC12 cells” value was “improved t-BHP-induced mitochondrial membrane potential disorder”. Further, the “Protective effect on t-BHP-induced cortical neuronal injury” value in the assay on Cortical neurons [12] (24 h, MTT, ****P<0.0001 vs t-BHP group) is reported as “significant protective effect”. Moreover, in the assay on Cortical neurons [12] (setting [13]), the “Protective effect on t-BHP-induced cortical neuronal injury compared with TMP and Edaravone” value is “much stronger than that of the parent compound TMP and Edaravone”.

On to `COc1cc2c(cc1OC)C(=O)C(CC1CCN(Cc3ccccc3)CC1)C2` (centres unmarked) [donepezil, reference compound], for which the “Improvement of scopolamine-induced memory impairment” value in assay [6] (3 mg/kg intragastric for two weeks) was “significantly improved the memory impairment induced by scopolamine”.

Turning to “NGF: positive control NGF, 50 ng/mL, in the PC12 differentiation test”, in the assay on PC12 cells [4] (serum-free F-12K + 50 ng/mL NGF, positive control), the “Differentiation of PC12 cells into neurons, synapse formation and growth” value is “significantly promote differentiation of PC12 cells into neurons, synapse formation and growth”.

Source of the values: patent publication US20180346430A1, “TRIFLUOROACETYL HYDRAZIDE COMPOUNDS AND METHODS OF PREPARATION AND USES THEREOF” (GUANGHOU MAGPIE PHARMACEUTICALS CO., LTD., priority 2014, published 2018).
